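Tested at 5 concentrations; 48 h exposure; 96-well plates; endpoints linearly interpolated, else capped at highest concentration. GI50: concentration for 50% inhibition of growth. Definition used: TGI = concentration required for complete inhibition of growth.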
Key:
Assay in all cases: NCI anticancer screen, dose series, 48 h
DU-145 prostate = system: DU-145 prostate
HOP-92 NSCLC = system: HOP-92 NSCLC
CCRF-CEM leukemia = system: CCRF-CEM leukemia
MDA-MB-231 breast = system: MDA-MB-231 breast
RPMI-8226 leukemia = system: RPMI-8226 leukemia
IGROV1 ovarian = system: IGROV1 ovarian
PC-3 prostate = system: PC-3 prostate
BT-549 breast = system: BT-549 breast
SR leukemia = system: SR leukemia
A498 renal = system: A498 renal
SNB-75 CNS = system: SNB-75 CNS
SF-268 CNS = system: SF-268 CNS
NCI/ADR-RES ovarian = system: NCI/ADR-RES ovarian
KM12 colon = system: KM12 colon
K-562 leukemia = system: K-562 leukemia
786-0 renal = system: 786-0 renal
SW-620 colon = system: SW-620 colon
HCC-2998 colon = system: HCC-2998 colon
UACC-257 melanoma = system: UACC-257 melanoma
HS 578T breast = system: HS 578T breast
SN12C renal = system: SN12C renal
SK-MEL-28 melanoma = system: SK-MEL-28 melanoma
SF-295 CNS = system: SF-295 CNS
OVCAR-8 ovarian = system: OVCAR-8 ovarian
SK-OV-3 ovarian = system: SK-OV-3 ovarian
MALME-3M melanoma = system: MALME-3M melanoma
MDA-MB-435 = system: MDA-MB-435
A549 NSCLC = system: A549 NSCLC
OVCAR-3 ovarian = system: OVCAR-3 ovarian
U251 CNS = system: U251 CNS
COLO 205 colon = system: COLO 205 colon
RXF 393 renal = system: RXF 393 renal
SF-539 CNS = system: SF-539 CNS
EKVX NSCLC = system: EKVX NSCLC
MCF7 breast = system: MCF7 breast
OVCAR-4 ovarian = system: OVCAR-4 ovarian
ACHN renal = system: ACHN renal
SNB-19 CNS = system: SNB-19 CNS
TK-10 renal = system: TK-10 renal
NCI-H23 lung = system: NCI-H23 lung
NCI-H226 lung = system: NCI-H226 lung
SK-MEL-2 melanoma = system: SK-MEL-2 melanoma
MOLT-4 leukemia = system: MOLT-4 leukemia
HCT-116 colon = system: HCT-116 colon
UO-31 renal = system: UO-31 renal
T-47D breast = system: T-47D breast
HOP-62 NSCLC = system: HOP-62 NSCLC
OVCAR-5 ovarian = system: OVCAR-5 ovarian
NCI-H522 lung = system: NCI-H522 lung
HL-60(TB) leukemia = system: HL-60(TB) leukemia
HT29 colon = system: HT29 colon
HCT-15 colon = system: HCT-15 colon
NCI-H460 lung = system: NCI-H460 lung
CAKI-1 renal = system: CAKI-1 renal
LOX IMVI melanoma = system: LOX IMVI melanoma
SK-MEL-5 melanoma = system: SK-MEL-5 melanoma
UACC-62 melanoma = system: UACC-62 melanoma
M14 melanoma = system: M14 melanoma

Cc1cc2nc3c4cc(C=O)ccc4n(CCN(C)C)c3nc2cc1C
GI50 (DU-145 prostate): 3.03 µM | TGI (DU-145 prostate): 10.6 µM | GI50 (HOP-92 NSCLC): 1.49 µM | TGI (HOP-92 NSCLC): 7.35 µM | GI50 (CCRF-CEM leukemia): 1.14 µM | TGI (CCRF-CEM leukemia): 7.77 µM | GI50 (MDA-MB-231 breast): 1.83 µM | TGI (MDA-MB-231 breast): 6.99 µM | GI50 (RPMI-8226 leukemia): 1.91 µM | TGI (RPMI-8226 leukemia): 5.16 µM | GI50 (IGROV1 ovarian): 1.52 µM | TGI (IGROV1 ovarian): 6.39 µM | GI50 (PC-3 prostate): 1.62 µM | TGI (PC-3 prostate): 5.71 µM | GI50 (BT-549 breast): 2.15 µM | TGI (BT-549 breast): 5.35 µM | GI50 (SR leukemia): 0.435 µM | TGI (SR leukemia): 11.1 µM | GI50 (A498 renal): 0.5 µM | TGI (A498 renal): 2.09 µM | GI50 (SNB-75 CNS): 1.98 µM | TGI (SNB-75 CNS): 5 µM | GI50 (SF-268 CNS): 2.05 µM | TGI (SF-268 CNS): 6.63 µM | GI50 (NCI/ADR-RES ovarian): 0.607 µM | TGI (NCI/ADR-RES ovarian): 6.97 µM | GI50 (KM12 colon): 2.12 µM | TGI (KM12 colon): 10 µM | GI50 (K-562 leukemia): 0.82 µM | TGI (K-562 leukemia): 18.6 µM | GI50 (786-0 renal): 1.43 µM | TGI (786-0 renal): 9.96 µM | GI50 (SW-620 colon): 0.479 µM | TGI (SW-620 colon): 4.31 µM | GI50 (HCC-2998 colon): 1.33 µM | TGI (HCC-2998 colon): 3.14 µM | GI50 (UACC-257 melanoma): 1.96 µM | TGI (UACC-257 melanoma): 4.8 µM | GI50 (HS 578T breast): 2.25 µM | TGI (HS 578T breast): 6.7 µM | GI50 (SN12C renal): 1.03 µM | TGI (SN12C renal): 8.04 µM | GI50 (SK-MEL-28 melanoma): 1.78 µM | TGI (SK-MEL-28 melanoma): 3.65 µM | GI50 (SF-295 CNS): 0.696 µM | TGI (SF-295 CNS): 5.69 µM | GI50 (OVCAR-8 ovarian): 0.777 µM | TGI (OVCAR-8 ovarian): 10.9 µM | GI50 (SK-OV-3 ovarian): 2.35 µM | TGI (SK-OV-3 ovarian): 10.9 µM | GI50 (MALME-3M melanoma): 1.29 µM | TGI (MALME-3M melanoma): 2.76 µM | GI50 (MDA-MB-435): 1.66 µM | TGI (MDA-MB-435): 3.07 µM | GI50 (A549 NSCLC): 0.851 µM | TGI (A549 NSCLC): 10.4 µM | GI50 (OVCAR-3 ovarian): 1.97 µM | TGI (OVCAR-3 ovarian): 6.58 µM | GI50 (U251 CNS): 1.65 µM | TGI (U251 CNS): 10.1 µM | GI50 (COLO 205 colon): 0.574 µM | TGI (COLO 205 colon): 2.1 µM | GI50 (RXF 393 renal): 1.06 µM | TGI (RXF 393 renal): 2.74 µM | GI50 (SF-539 CNS): 1.51 µM | TGI (SF-539 CNS): 3.87 µM | GI50 (EKVX NSCLC): 2.04 µM | TGI (EKVX NSCLC): 6.27 µM | GI50 (MCF7 breast): 1.82 µM | TGI (MCF7 breast): 5.99 µM | GI50 (OVCAR-4 ovarian): 2.12 µM | TGI (OVCAR-4 ovarian): 7.75 µM | GI50 (ACHN renal): 0.426 µM | TGI (ACHN renal): 4.56 µM | GI50 (SNB-19 CNS): 1.65 µM | TGI (SNB-19 CNS): 9.09 µM | GI50 (TK-10 renal): 1.97 µM | TGI (TK-10 renal): 6.59 µM | GI50 (NCI-H23 lung): 1.49 µM | TGI (NCI-H23 lung): 4.45 µM | GI50 (NCI-H226 lung): 2.07 µM | TGI (NCI-H226 lung): 7.32 µM | GI50 (SK-MEL-2 melanoma): 1.76 µM | TGI (SK-MEL-2 melanoma): 3.65 µM | GI50 (MOLT-4 leukemia): 0.389 µM | TGI (MOLT-4 leukemia): 10.3 µM | GI50 (HCT-116 colon): 0.484 µM | TGI (HCT-116 colon): 9.1 µM | GI50 (UO-31 renal): 0.846 µM | TGI (UO-31 renal): 8.78 µM | GI50 (T-47D breast): 2.14 µM | TGI (T-47D breast): 7.04 µM | GI50 (HOP-62 NSCLC): 1.54 µM | TGI (HOP-62 NSCLC): 10.1 µM | GI50 (OVCAR-5 ovarian): 2.17 µM | TGI (OVCAR-5 ovarian): 7.23 µM | GI50 (NCI-H522 lung): 1.87 µM | TGI (NCI-H522 lung): 4.91 µM | GI50 (HL-60(TB) leukemia): 1.35 µM | TGI (HL-60(TB) leukemia): 5.84 µM | GI50 (HT29 colon): 0.656 µM | TGI (HT29 colon): 3.74 µM | GI50 (HCT-15 colon): 1.36 µM | TGI (HCT-15 colon): 7.24 µM | GI50 (NCI-H460 lung): 1.19 µM | TGI (NCI-H460 lung): 10.1 µM | GI50 (CAKI-1 renal): 1.7 µM | TGI (CAKI-1 renal): 9.69 µM | GI50 (LOX IMVI melanoma): 0.532 µM | TGI (LOX IMVI melanoma): 2.5 µM | GI50 (SK-MEL-5 melanoma): 1.69 µM | TGI (SK-MEL-5 melanoma): 3.33 µM | GI50 (UACC-62 melanoma): 1.75 µM | TGI (UACC-62 melanoma): 3.7 µM | GI50 (M14 melanoma): 1.3 µM | TGI (M14 melanoma): 2.95 µM

C=C(C(=O)OC1C(CO)OC(OCC2CC[C@@H]3C[C@]4(OC(=O)C3=C)C(C)=CC(=O)C24)C(O)C1O)[C@@H]1CCC(CO)C2C(=O)C=C(C)[C@@]2(O)C1 (some centres undefined)
TGI (DU-145 prostate): 17.6 µM | TGI (HOP-92 NSCLC): 6.66 µM | TGI (CCRF-CEM leukemia): 1.3 µM | TGI (MDA-MB-231 breast): 3.26 µM | TGI (RPMI-8226 leukemia): 9.12 µM | TGI (IGROV1 ovarian): 12.6 µM | TGI (PC-3 prostate): 6.63 µM | TGI (BT-549 breast): 3.52 µM | TGI (SR leukemia): 11.6 µM | TGI (A498 renal): 9.86 µM | TGI (SNB-75 CNS): 29 µM | TGI (SF-268 CNS): 16.1 µM | TGI (NCI/ADR-RES ovarian): 11.2 µM | TGI (KM12 colon): 8.31 µM | TGI (K-562 leukemia): 31.1 µM | TGI (786-0 renal): 7.85 µM | TGI (SW-620 colon): 13.3 µM | TGI (HCC-2998 colon): 4.29 µM | TGI (UACC-257 melanoma): 5.17 µM | TGI (HS 578T breast): > 53.1 µM | TGI (SN12C renal): 5.42 µM | TGI (SK-MEL-28 melanoma): 14.8 µM | TGI (SF-295 CNS): 35 µM | TGI (OVCAR-8 ovarian): 14.8 µM | TGI (SK-OV-3 ovarian): 55.9 µM | TGI (MALME-3M melanoma): 3.44 µM | TGI (MDA-MB-435): 5.04 µM | TGI (A549 NSCLC): 18 µM | TGI (OVCAR-3 ovarian): 14.7 µM | TGI (U251 CNS): 16 µM | TGI (COLO 205 colon): 1.13 µM | TGI (RXF 393 renal): 4.14 µM | TGI (SF-539 CNS): 10.5 µM | TGI (EKVX NSCLC): 8.61 µM | TGI (MCF7 breast): 12.8 µM | TGI (OVCAR-4 ovarian): 20.1 µM | TGI (ACHN renal): 12.3 µM | TGI (SNB-19 CNS): 31.8 µM | TGI (TK-10 renal): 13.1 µM | TGI (NCI-H23 lung): 5.12 µM | TGI (NCI-H226 lung): 20.2 µM | TGI (SK-MEL-2 melanoma): 8.29 µM | TGI (MOLT-4 leukemia): 8.41 µM | TGI (HCT-116 colon): 3.07 µM | TGI (UO-31 renal): 7.98 µM | TGI (T-47D breast): 24.3 µM | TGI (HOP-62 NSCLC): 24.9 µM | TGI (OVCAR-5 ovarian): 7.15 µM | TGI (NCI-H522 lung): 0.783 µM | TGI (HL-60(TB) leukemia): 3.76 µM | TGI (HT29 colon): 6.37 µM | TGI (HCT-15 colon): 3.1 µM | TGI (NCI-H460 lung): 13.7 µM | TGI (CAKI-1 renal): 7.93 µM | TGI (LOX IMVI melanoma): 6.32 µM | TGI (SK-MEL-5 melanoma): 2.75 µM | TGI (UACC-62 melanoma): 3.35 µM | TGI (M14 melanoma): 4.81 µM
